The source of these data is EP4763839A1 (Pamplona Therapeutics (Shenzhen) Co., Ltd., priority 2023, dated 2025).

This assay concerns the target T1, IRAK4 (Homo sapiens, UniProt Q9NWZ3).
T1 sequence (Q9NWZ3 1-460): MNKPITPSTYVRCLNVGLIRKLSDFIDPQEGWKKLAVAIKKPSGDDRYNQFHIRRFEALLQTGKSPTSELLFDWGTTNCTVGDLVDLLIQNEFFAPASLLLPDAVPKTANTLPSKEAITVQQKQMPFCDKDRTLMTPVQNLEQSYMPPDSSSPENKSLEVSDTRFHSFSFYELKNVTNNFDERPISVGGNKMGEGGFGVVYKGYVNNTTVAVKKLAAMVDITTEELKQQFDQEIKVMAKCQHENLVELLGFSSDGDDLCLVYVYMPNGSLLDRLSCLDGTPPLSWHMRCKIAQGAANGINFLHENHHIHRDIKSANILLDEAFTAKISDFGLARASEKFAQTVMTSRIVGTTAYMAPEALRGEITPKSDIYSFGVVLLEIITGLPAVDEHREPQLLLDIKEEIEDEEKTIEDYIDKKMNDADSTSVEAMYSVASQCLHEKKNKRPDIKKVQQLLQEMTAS
In words: Degradation of IRAK4 in THP1 cells, Western blot. Further details: Degradation of IRAK4 in THP1 by compound; host or cells: THP-1. As to conditions: THP-1 cells, 24 hours of incubation; for DC50: IRAK4 protein by Western blot, read-out: DC50; for Dmax: maximum degradation rate, read-out: Dmax. The class given is cell-based. The procedure:
After 24 hours of incubation, the cells were collected into 1.5 mL centrifuge tubes and centrifuged at 1,000 rpm for 5 minutes. […] The supernatants were collected, and the IRAK4 protein levels were respectively detected by Western blot (WB). The total protein concentration in the cell lysate supernatant was determined using a BCA protein quantification kit (NCM). Based on the total protein concentration detected by BCA, the samples were adjusted to 2 μg/μL using cell lysis buffer and 5×SDS-PAGE protein loading buffer (Beyotime), heated at 95°C for 5 minutes in a metal bath, and then placed on ice for an ice bath for 5 minutes before being used as the loading samples for Western blot analysis. Protein electrophoresis was performed using a 10% SDS-PAGE gel with a loading volume of 20 μL (total protein 40 μg) and Tris-SDS electrophoresis at a constant voltage of 80 V. After electrophoresis, the proteins on the gel were transferred to a 0.2 μm PVDF membrane (Immobilon) using a semi-dry transfer method at 0.5 A and 20 V for 60 minutes. After transfer, the membrane was placed in 5% skimmed milk and incubated at rt for 2 hours. After blocking, the PVDF membrane was incubated with primary antibody against IRAK4 (Abcam) at 4°C overnight. […] The color development and protein band imaging were performed using a chemiluminescence imaging system ([…] Technology Co., Ltd.). The protein bands were analyzed for grayscale values using Image J analysis software. The corrected grayscale values for each sample were calculated and then compared with those of the control group treated with DMSO alone to calculate the degradation rate.
On the technique in general: In western blotting, separated proteins are transferred to a membrane and probed.

Structures can show the parent of a compound that is named as a salt.

Usually DC50 stands for the concentration at which degradation of the target reaches its halfway point. Broadly, the Dmax is the greatest extent of degradation seen. With `COc1ccc(C(=O)N2CCC(CCN3CCN(c4ccc(-n5cc(NC(=O)c6cccc(-c7ccn[nH]7)n6)c(S(N)(=O)=O)n5)cc4)CC3)CC2)cc1N1CCC(=O)NC1=O` [Compound A324], the DC50 was below 100 nM and the Dmax is above 60%.

Regarding `Cn1c(=O)n(C2CCC(=O)NC2=O)c2ccc(N3CCC(CN4CCN(c5ccc(-n6cc(NC(=O)c7cccc(C(F)(F)F)n7)c(C(N)=O)n6)cc5)CC4)C(F)(F)C3)cc21` (stereo not shown) [Compound A299, N-(3-Carbamoyl-1-(4-(4-((1-(1-(2,6-dioxopiperidin-3-yl)-3-methyl-2-oxo-2,3-dihydro-1H-benzo[d]imidazol-5-yl)-3,3-difluoropiperidin-4-yl)methyl)piperazin-1-yl)phenyl)-1H-pyrazol-4-yl)-6-(trifluoromethyl)picolinamide], the DC50 is below 100 nM and the Dmax is above 60%.

As to `COc1cc(NC2CCC(=O)NC2=O)ccc1N1CCC(N2CCN(c3ccc(-n4cc(NC(=O)c5cccc(C(F)(F)F)n5)c(C(N)=O)n4)cc3)CC2)CC1` (stereo not shown) [Compound A425, N-(3-Carbamoyl-1-(4-(4-(1-(4-((2,6-dioxopiperidin-3-yl)amino)-2-methoxyphenyl)piperidin-4-yl)piperazin-1-yl)phenyl)-1H-pyrazol-4-yl)-6-(trifluoromethyl)picolinamide], the DC50 was below 100 nM and the Dmax was above 60%.

As to `NC(=O)c1nn(-c2ccc(N3CCN(C4CCN(c5ccc(C(=O)NC6CCC(=O)NC6=O)c(F)c5)CC4)CC3)cc2)cc1NC(=O)c1cccc(C(F)(F)F)n1` (stereo not shown) [Compound A422, N-(3-Carbamoyl-1-(4-(4-(1-(4-((2,6-dioxopiperidin-3-yl)carbamoyl)-3-fluorophenyl)piperidin-4-yl)piperazin-1-yl)phenyl)-1H-pyrazol-4-yl)-6-(trifluoromethyl)picolinamide], the DC50 was below 100 nM and the maximal degradation (Dmax) was above 60%.

On to `Cn1c(=O)n(C2CCC(=O)NC2=O)c2cccc(C#CCOC3CCN(C(=O)c4ccc(-n5cc(NC(=O)c6cccc(-c7ccn[nH]7)n6)c(S(N)(=O)=O)n5)cc4)CC3)c21` (stereo not shown) [Compound A335, N-(1-(4-(4-((3-(1-(2,6-Dioxopiperidin-3-yl)-3-methyl-2-oxo-2,3-dihydro-1H-benzo[d]imidazol-4-yl)prop-2-yn-1-yl)oxy)piperidine-1-carbonyl)phenyl)-3-sulfamoyl-1H-pyrazol-4-yl)-6-(1H-pyrazol-5-yl)picolinamide], for which the DC50 was below 100 nM and the Dmax was above 60%.

With `NC(=O)c1nn(-c2ccc(N3CCN(C(=O)N4CCC(c5ccc(OC6CCC(=O)NC6=O)cc5F)CC4)CC3)cc2)cc1NC(=O)c1cccc(C(F)(F)F)n1` (stereo not shown) [Compound A355, N-(3-Carbamoyl-1-(4-(4-(4-(4-((2,6-dioxopiperidin-3-yl)oxy)-2-fluorophenyl)piperidine-1-carbonyl)piperazin-1-yl)phenyl)-1H-pyrazol-4-yl)-6-(trifluoromethyl)picolinamide], the DC50 was below 100 nM and the Dmax was above 60%.

With `Cn1c(=O)n(C2CCC(=O)NC2=O)c2cccc(NCCN3CCN(C(=O)c4ccc(-n5cc(NC(=O)c6cccc(-c7ccn[nH]7)n6)c(S(N)(=O)=O)n5)cc4)CC3)c21` (stereo not shown) [Compound A356, N-(1-(4-(4-(2-((1-(2,6-Dioxopiperidin-3-yl)-3-methyl-2-oxo-2,3-dihydro-1H-benzo[d]imidazol-4-yl)amino)ethyl)piperazine-1-carbonyl)phenyl)-3-sulfamoyl-1H-pyrazol-4-yl)-6-(1H-pyrazol-5-yl)picolinamide], the DC50 is below 100 nM and the Dmax is above 60%.

Regarding `NC(=O)c1nn(-c2ccc(N3CCN(CC4CCN(c5ccc(OC6CCC(=O)NC6=O)cc5F)CC4)CC3)cc2)cc1NC(=O)c1cccc(C(F)(F)F)n1` (stereo not shown) [Compound A421, N-(3-Carbamoyl-1-(4-(4-((1-(4-((2,6-dioxopiperidin-3-yl)oxy)-2-fluorophenyl)piperidin-4-yl)methyl)piperazin-1-yl)phenyl)-1H-pyrazol-4-yl)-6-(trifluoromethyl)picolinamide], the DC50 was below 100 nM and the greatest degradation seen (Dmax) is above 60%.

On to `Cn1c(=O)n(C2CCC(=O)NC2=O)c2cccc(N3CCC(C(=O)N4CCN(Cc5ccc(-n6cc(NC(=O)c7cccc(-c8ccn[nH]8)n7)c(S(N)(=O)=O)n6)cc5)CC4)CC3)c21` (stereo not shown) [Compound A331, N-(1-(4-((4-(1-(1-(2,6-dioxopiperidin-3-yl)-3-methyl-2-oxo-2,3-dihydro-1H-benzo[d]imidazol-4-yl)piperidine-4-carbonyl)piperazin-1-yl)methyl)phenyl)-3-sulfamoyl-1H-pyrazol-4-yl)-6-(1H-pyrazol-5-yl)picolinamide], for which the DC50 was below 100 nM and the Dmax is above 60%.

For the compound `NC(=O)c1nn(-c2ccc(N3CCN(CC4CCN(c5ccc(NC6CCC(=O)NC6=O)cn5)CC4)CC3)cc2)cc1NC(=O)c1cccc(C(F)(F)F)n1` (stereo not shown) [Compound A396, N-(3-Carbamoyl-1-(4-(4-((1-(5-((2,6-dioxopiperidin-3-yl)amino)pyridin-2-yl)piperidin-4-yl)methyl)piperazin-1-yl)phenyl)-1H-pyrazol-4-yl)-6-(trifluoromethyl)picolinamide], the half-maximal degradation concentration (DC50) was below 100 nM and the greatest degradation seen (Dmax) was above 60%.

Consider `N#Cc1ccnc(C(=O)Nc2cn(-c3ccc(N4CCN(CC5CCN(c6ccc(NC7CCC(=O)NC7=O)cc6F)CC5)CC4)cc3)nc2C(N)=O)c1` (stereo not shown) [Compound A349, N-(3-Carbamoyl-1-(4-(4-((1-(4-((2,6-dioxopiperidin-3-yl)amino)-2-fluorophenyl)piperidin-4-yl)methyl)piperazin-1-yl)phenyl)-1H-pyrazol-4-yl)-4-cyanopicolinamide], for which the DC50 was above 1000 nM and the Dmax is below 40%.

`Cn1c(=O)n(C2CCC(=O)NC2=O)c2cccc(C#CCOC3CN(C(=O)c4ccc(-n5cc(NC(=O)c6cccc(-c7ccn[nH]7)n6)c(S(N)(=O)=O)n5)cc4)C3)c21` (stereo not shown) [Compound A348]: the DC50 was below 100 nM and the Dmax is above 60%.

For the compound `N#Cc1cccc(C(=O)Nc2cn(-c3ccc(N4CCN(C5CCN(c6ccc(NC7CCC(=O)NC7=O)cc6F)CC5)CC4)cc3)nc2C(N)=O)n1` (stereo not shown) [Compound A388, N-(3-Carbamoyl-1-(4-(4-(1-(4-((2,6-Dioxopiperidin-3-yl)amino)-2-fluorophenyl)piperidin-4-yl)piperazin-1-yl)phenyl)-1H-pyrazol-4-yl)-6-cyanopicolinamide], the DC50 is above 1000 nM and the Dmax is below 40%.

Turning to `COc1ccc(C(=O)N2CCC(CCN3CCN(c4ccc(-n5cc(NC(=O)c6cccc(-c7ccn[nH]7)n6)c(S(N)(=O)=O)n5)cc4)CC3)C2)cc1N1CCC(=O)NC1=O` (stereo not shown) [Compound A328, N-(1-(4-(4-(1-(3-(2,4-dioxotetrahydropyrimidin-1(2H)-yl)-4-methoxybenzoyl)pyrrolidin-3-ethyl)piperazin-1-yl)phenyl)-3-sulfonylamino-1H-pyrazol-4-yl)-6-(1H-pyrazol-5-yl)picolinamide trifluoroacetate], the DC50 is below 100 nM and the Dmax was above 60%.

In the case of `NC(=O)c1cn(-c2ccc(N3CCN(C4CCN(c5ccc(C(=O)NC6CCC(=O)NC6=O)nc5)CC4)CC3)cc2)cc1NC(=O)c1cccc(C(F)(F)F)n1` (stereo not shown) [Compound A452, N-(4-Carbamoyl-1-(4-(4-(1-(6-((2,6-dioxopiperidin-3-yl)carbamoyl)pyridin-3-yl)piperidin-4-yl)piperazin-1-yl)phenyl)-1H-pyrrol-3-yl)-6-(trifluoromethyl)picolinamide], the half-maximal degradation concentration (DC50) was below 100 nM and the Dmax is above 60%.

As to `Cn1c(=O)n(C2CCC(=O)NC2=O)c2cccc(CN3CCC(N4CCN(c5ccc(-n6cc(NC(=O)c7cccc(C(F)(F)F)n7)c(C(N)=O)n6)cc5)CC4)CC3)c21` (stereo not shown) [Compound A372], the DC50 was below 100 nM and the Dmax is above 60%.

As to `Cn1c(=O)n(C2CCC(=O)NC2=O)c2cccc(N3CCC4(CC3)CN(CCc3ccc(-n5cc(NC(=O)c6cccc(C(F)(F)F)n6)c(C(N)=O)n5)cc3)C4)c21` (stereo not shown) [Compound A316, N-(3-carbamoyl-1-(4-(2-(7-(1-(2,6-dioxopiperidin-3-yl)-3-methyl-2-oxo-2,3-dihydro-1H-benzo[d]imidazol-4-yl)-2,7-diazaspiro[3.5]nonan-2-yl)ethyl)phenyl)-1H-pyrazol-4-yl)-6-(trifluoromethyl)picolinamide], the DC50 is below 100 nM and the maximal degradation (Dmax) was above 60%.
